Measured values from patent US20100197614A1, “TREATMENT OF URINARY TRACT INFECTIONS WITH A MIXTURE OF SAPONIN AND AN ANTIBIOTIC” (priority 2007, published 2010).

Tests used:
[1] = tested on: wild-type E Coli bacteria isolated from UTI patients; assay: Growth (absorption at 600 nm) and CFU survival of E Coli directly exposed to gentamicin in LB; type: cell-based, Escherichia coli
Experimental: Furthermore, a sample of each bacteria solution at each different gentamicin concentration was transferred to an agar plate in order to test if the bacteria could give any surviving colony forming units (CFU) on an agar plate. The agar plate incubated overnight at 37° C.
FIG. 3, lower panel, no E Coli bacteria could survive being exposed for 2 hours to concentrations of gentamicin higher than approximately 3.1 μg/ml.
Seven different wild-type E Coli bacteria were isolated from UTI patients and were cultured in Luria Broth (LB) medium under static conditions for 2 days. The method for culturing bacteria is familiar for any skilled person in this field of microbiology. The 2 days old bacteria were diluted 100 fold in fresh sterile LB and added different concentrations of gentamicin or no gentamicin (control). Gentamicin was used as representative antibiotic agent. The bacteria were then allowed to re-grow for 2 hours under optimal growth conditions (shaking and at 37° C.) before the actual concentrations of bacteria cell in the LB were measured by determination of the absorption at 600 nm. The absorption of light reflects the number of bacteria. The number of bacteria was expressed relatively to the control preparation without gentamicin. […] Furthermore, a sample of each bacteria solution at each different gentamicin concentration was transferred to an agar plate in order to test if the bacteria survived and could cause formation of colony forming units (CFU) on an agar plate. The agar plate incubated overnight at 37° C.

[2] = tested on: E Coli taken up by human urinary bladder cells (HTB-9); assay: Infection of human bladder cells (HTB-9) with E Coli; surviving intracellular bacteria counted as CFU after gentamicin exposure; type: cell-based, Escherichia coli; conditions: HTB-9 infected 1 or 2 hours, then 100.0 μg/ml gentamicin for 2 hours
Experimental: Human bladder cells were cultured and thereafter infected with bacteria. In brief, human urinary bladder cells (HTB-9 from American tissue culture collection) were cultured in culture medium and CO2 incubator at 37° C. until the actual experiment took place. Culturing of human cells is familiar for any skilled person in this field of biology. Next, different concentrations of E Coli were added to the human bladder cells. The bladder cells and the bacteria were allowed to incubate for 1 or 2 hours together before most of the loosely bound and extracellular E Coli cells were removed by washing the bladder cells with PBS (the human bladder cells are attached to the bottom of the cell culture flask). The human bladder cells were exposed to 100.0 μg/ml gentamicin for 2 hours. Gentamicin cannot pass any membrane under normal conditions. As already shown in example 1, this gentamicin treatment kills all bacteria if the gentamicin can get access to the bacteria. Residual gentamicin and dead bacteria were removed again by washing the bladder cells with PBS. A final concentration of 0.1% triton x-100 in phosphate buffered saline was added to destroy all membrane structures of the human cells. […] The degree of expression of bacterial type 1 pili was correlated with the degree of bladder infection as measured by the method explained in example 2. […]

gentamicin
survival of test bacteria on direct exposure ([1]; 100.0 μg/ml gentamicin, 2 hours): could not survive | number of bacteria relative to control without gentamicin (absorption at 600 nm) ([1]; 2 hours re-growth with different concentrations of gentamicin): reduced at very low concentrations of gentamicin | gentamicin concentration above which no E Coli bacteria could survive (CFU on agar plate) ([1]; exposed for 2 hours, LB, 37° C., agar plate overnight): approximately 3.1 μg/ml | survival of bacteria taken up by bladder cells after antibiotic treatment (CFU) [2]: able to survive the antibiotic treatment
